Experimental data from the NIST ThermoML archive (doi:10.1021/acs.jced.9b00424).
Numbers after ± are expanded uncertainties.

Test: xn = mol fraction of the nth substance listed
Details: for surface tension liquid-gas: Pendant drop shape; for viscosity: 100 kPa, Concentric cylinders viscometry; for viscosity / mass density: Liquid; for mass density: 101 kPa, Vibrating tube method

CCCCCCCC(=O)O [octanoic acid] + CC(C)[C@@H]1CC[C@@H](C)C[C@H]1O
Details	mass density [kg/m3]	surface tension liquid-gas [mN/m]	viscosity [mPa·s]
297.82 K, x2 = 0	–	30.95 ± 3	–
298 K, x2 = 0.333	–	25.72 ± 3	–
298.11 K, x2 = 0.5	–	26.67 ± 3	–
298.15 K, x2 = 0	917.2 ± 10	–	5.17 ± 0.21
298.15 K, x2 = 0.25	914.7 ± 10	–	7.61 ± 0.32
298.15 K, x2 = 0.333	914.1 ± 10	–	8.81 ± 0.37
298.15 K, x2 = 0.5	912.3 ± 10	–	12.18 ± 0.52
298.15 K, x2 = 0.667	910.3 ± 10	–	17.71 ± 0.78
298.15 K, x2 = 0.75	909.3 ± 10	–	20.82 ± 0.93
298.16 K, x2 = 0.25	–	23.32 ± 3	–
298.2 K, x2 = 0.75	–	23.77 ± 3.1	–
298.24 K, x2 = 0.667	–	20.94 ± 3	–
302.68 K, x2 = 0	–	30.04 ± 3	–
303.04 K, x2 = 0.5	–	25.67 ± 3	–
303.15 K, x2 = 0	910.3 ± 10	–	4.54 ± 0.18
303.15 K, x2 = 0.25	908 ± 10	–	6.46 ± 0.27
303.15 K, x2 = 0.333	907.4 ± 10	–	7.37 ± 0.31
303.15 K, x2 = 0.5	905.7 ± 10	–	9.83 ± 0.42
303.15 K, x2 = 0.667	903.7 ± 10	–	13.65 ± 0.6
303.15 K, x2 = 0.75	902.7 ± 10	–	15.46 ± 0.69
303.69 K, x2 = 0.333	–	24.84 ± 3	–
303.77 K, x2 = 0.667	–	20.53 ± 3	–
303.85 K, x2 = 0.25	–	22.25 ± 3	–
303.88 K, x2 = 0.75	–	23 ± 3	–
307.73 K, x2 = 0.5	–	24.67 ± 3	–
308.15 K, x2 = 0	903.8 ± 10	–	4.01 ± 0.16
308.15 K, x2 = 0.25	901.7 ± 10	–	5.54 ± 0.23
308.15 K, x2 = 0.333	901.1 ± 10	–	6.23 ± 0.26
308.15 K, x2 = 0.5	899.5 ± 10	–	8.06 ± 0.35
308.15 K, x2 = 0.667	897.6 ± 10	–	10.73 ± 0.47
308.15 K, x2 = 0.75	896.6 ± 10	–	11.94 ± 0.54
308.49 K, x2 = 0	–	28.56 ± 3	–
308.53 K, x2 = 0.333	–	24.25 ± 3	–
308.73 K, x2 = 0.25	–	21.65 ± 3	–
308.75 K, x2 = 0.667	–	20.24 ± 3	–
308.78 K, x2 = 0.75	–	22.27 ± 3	–
312.93 K, x2 = 0	–	27.56 ± 3	–
313.15 K, x2 = 0	897.6 ± 10	–	3.59 ± 0.15
313.15 K, x2 = 0.25	895.6 ± 10	–	4.81 ± 0.2
313.15 K, x2 = 0.333	895.1 ± 10	–	5.35 ± 0.22
313.15 K, x2 = 0.5	893.5 ± 10	–	6.72 ± 0.29
313.15 K, x2 = 0.667	891.7 ± 10	–	8.62 ± 0.38
313.15 K, x2 = 0.75	890.6 ± 10	–	9.42 ± 0.42
313.17 K, x2 = 0.333	–	23.9 ± 3	–
313.35 K, x2 = 0.5	–	23.58 ± 3	–
314.11 K, x2 = 0.25	–	21.16 ± 3	–
314.26 K, x2 = 0.667	–	19.94 ± 3	–
314.39 K, x2 = 0.75	–	21.81 ± 3	–
317.8 K, x2 = 0	–	26.06 ± 3	–
318.12 K, x2 = 0.5	–	22.74 ± 3	–
318.15 K, x2 = 0	891.7 ± 10	–	3.2 ± 0.13
318.15 K, x2 = 0.25	889.9 ± 10	–	4.18 ± 0.17
318.15 K, x2 = 0.333	889.4 ± 10	–	4.6 ± 0.19
318.15 K, x2 = 0.5	887.9 ± 10	–	5.63 ± 0.24
318.15 K, x2 = 0.667	886.1 ± 10	–	7 ± 0.31
318.15 K, x2 = 0.75	885 ± 10	–	7.53 ± 0.34
318.42 K, x2 = 0.333	–	23.36 ± 3	–
318.81 K, x2 = 0.667	–	19.7 ± 3	–
318.88 K, x2 = 0.25	–	20.56 ± 3	–
318.9 K, x2 = 0.75	–	21.15 ± 3	–
322.15 K, x2 = 0	–	24.99 ± 3	–
322.96 K, x2 = 0.333	–	22.93 ± 3	–
322.97 K, x2 = 0.5	–	21.75 ± 3	–
323.15 K, x2 = 0	–	–	2.88 ± 0.12
323.15 K, x2 = 0.25	–	–	3.68 ± 0.15
323.15 K, x2 = 0.333	–	–	4 ± 0.17
